The values that follow come from patent US20260027068A1, “METHODS OF ADM[…]-KETAMINE” (Perception Neuroscience, Inc., priority 2022, published 2026).

One may read the Vd as the apparent volume that relates the amount in the body to the concentration in plasma or blood. One may read the clearance as the volume of plasma or blood freed of the substance per unit of time. As usually defined, the half-life is the time needed for the level to fall by half in the phase considered. The term Tmax denotes the time from dosing to the highest level. One may read the AUC(0-inf) as the area under the concentration-time curve extrapolated to infinity. As a reminder, the Cmax is the peak of the concentration-time curve. In general, AUC(0-t) refers to exposure summed from dosing to a finite time, without extrapolation to infinity.

A short description of this data set: Phase 1 single ascending dose plasma pharmacokinetics of 40-minute IV infusion of R(−)-ketamine and its metabolites. The settings on record: for Tmax: all dose levels 5 mg to 150 mg; for AUC(0-inf) / Cmax / AUC(0-t): iv.
Where [1] appears, read: both, human, plasma, intravenous.

Procedure: This was a Phase 1 randomized, placebo-controlled, double-blind, single dose study conducted at one center. […] The pharmacokinetic (PK) population was 36 subjects, with 12 additional subjects receiving placebo. […] Subjects were male or female healthy subjects, 18 to 65 years of age. […] Cohort 1 was dosed at 5 mg, followed by Cohort 2 at 15 mg, Cohort 3 at 30 mg, Cohort 4 at 60 mg, Cohort 5 at 100 mg, and Cohort 6 at 150 mg R(−)-ketamine. […] In addition to the safety and tolerability data, the study also evaluated the dose-related PK of each 40-minute IV infusion of R(−)-ketamine.
To evaluate the pharmacokinetics of R(−)-ketamine, blood was drawn from subjects for PK analysis at the following sampling times: pre-dose (−30 minutes); and from the start of infusion (5, 10, and 15 minutes [±1 minute], 30 minutes [±5 minutes], 40 minutes [immediately prior to infusion completion], 1, 1.5, 2, and 3 hours [±5 minutes], 4 and 8 hours [±10 minutes], 12 and 24 hours [±15 minutes]).
Plasma PK parameters of R(−)-ketamine and its metabolites (norketamine, 6-hydroxynorketamine, and dehydronorketamine) evaluated on include the following: • Maximum plasma concentration (Cmax), • Time to Cmax (Tmax), • Area under the plasma concentration curve (AUC0-t, AUC0-∞) • Elimination rate constant (λz), • Half-live (t½) • Clearance (CL, P R(−)-ketamine only), • Volume of distribution (Vz, R(−)-ketamine only), and • Metabolite to parent ratios (area under curve [AUC] and Cmax).
The dose proportionality was assessed both visually and statistically using calculated Cmax and AUC values. […] Continuous variables: Descriptive statistics included the number of non-missing values (n), arithmetic mean, standard deviation (SD), median, minimum, and maximum values. […] For PK concentration data, the number of non-missing values, number of below limit of quantification (BLQ) values, arithmetic mean, SD, median, minimum, maximum, coefficient of variation (CV %), geometric mean, and geometric CV (geo CV %) values are presented. For PK parameter data, the number of non-missing values, arithmetic mean, SD, median, minimum, maximum, CV %, geometric mean, and geometric CV (geo CV %) values are presented.
Intravenous administration of allocated blinded study drug (Morning, Day 1) was infused over 40 minutes. Blood collection for plasma PK analysis occurred at infusion 5, 10, 15, 30, 40, 60, and 90 minutes, and 2, 3, 4, 8, and 12 hours after the start of infusion.
Plasma concentrations of R(−)-ketamine and its metabolites norketamine, 6-hydroxynorketamine, and dehydronorketamine were determined using a suitable validated analytical method with a lower limit of quantitation (LOQ) of 1 ng/mL.
The linearity of the increase in exposure with respect to the increasing dose administered was evaluated for Cmax and AUC for R(−)-ketamine and its metabolites (norketamine, 6-hydroxynorketamine and dehydronorketamine). […] The power model was used to estimate the slope parameter and the 90% confidence intervals for the slope.

Take `CN[C@@]1(c2ccccc2Cl)CCCCC1=O.Cl` [R(−)-ketamine, (2R)-2-(2-chlorophenyl)-2-(methylamino)cyclohexan-1-one]: under “after start of infusion, LOQ 1 ng/mL”, the “Earliest timepoint at which concentrations were quantifiable in all subjects” value was determined as 5 min. In addition, under setting [1], the Vd fell in the range of 345 to 921 L. Also, the clearance under setting [1] is 1280 to 1630 mL/min. The half-life under setting [1] lay in the range of 184 to 433 min. Besides, the time of peak concentration (Tmax) runs as follows: (both, human, plasma, intravenous, Median plasma Tmax) 40 min; (both, human, plasma, intravenous, Plasma Tmax range) 15 to 40 min. The AUC(0-inf) is, setting by setting: (both, human, plasma, 5 mg) 64 ng·h/mL; (both, human, plasma, 150 mg) 1820 ng·h/mL. In addition, the Cmax (both, human, plasma, 5 mg) came out at 33.9 ng/mL and the Cmax (both, human, plasma, 150 mg) turned out to be 780 ng/mL. For the same compound, the exposure AUC(0-t) (both, human, plasma, 5 mg, Arithmetic mean AUC0-24h, 5 mg R(−)-ketamine IV) worked out at 63.5 ng·h/mL; the exposure AUC(0-t) (both, human, plasma, 5 mg, Arithmetic mean AUC0-t, 5 mg R(−)-ketamine IV) came out at 57.5 ng·h/mL; the AUC(0-t) (both, human, plasma, 150 mg, Arithmetic mean AUC0-24h, 150 mg R(−)-ketamine IV) is 1720 ng·h/mL; the exposure AUC(0-t) (both, human, plasma, 150 mg, Arithmetic mean AUC0-t, 150 mg R(−)-ketamine IV) is 1720 ng·h/mL.
